Test results from article PMC10410440, “Preclinical PK investigation of a novel IDO1/TDO dual inhibitor—SHR9146 in mouse plasma and tissues by LC-MS/MS” (Frontiers in Oncology, 2023).
“And” between values parts separate entries of the source, which are not always exact repeats. Identical values can stand only once. Like-named read-outs stand apart in the source and are kept apart here.

Test: Tissue distribution of SHR9146 in mice after oral gavage of 40 mg/kg
Assay type: in vivo, ICR mice
Conditions: 40 mg/kg, 40 mg/kg oral gavage; for concentration at 1 h / concentration at 3 h / concentration at 6 h / concentration at 24 h: female, ICR, mouse, po
Protocol: ICR mice with body weight 16–26 g were supplied by Shanghai Lingchang Biotechnology Co., Ltd. (animal breeding license number SCXK (Shanghai) 2013-0018) and housed at Shanghai Institute of Materia Medica, Chinese Academy of Sciences [animal use license number SYXK (Shanghai) 2015-0027]. The mice used in this study were fasted overnight for 12 h but had free access to water. Food was supplied 4 h post-dose. All experiments in this study were conducted in accordance with the Guidelines for the Care and Use of Laboratory Animals of Shanghai Institute of Materia Medica, Chinese Academy of Sciences.
Another set of 30 mice were randomly assigned into five groups with equal numbers, males and females, for tissue distribution study with oral gavage at a single dose of 40 mg/kg at predetermined different time points: pre-dose and post dose at 1, 3, 6, and 24 h, respectively. The whole brain, heart, liver, spleen, lung, kidney, bladder, pancreas, testis, ovary, uterus, stomach, small intestine, adrenal gland, skin, skeletal muscle, thyroid gland, and abdominal fat tissues as well as the whole blood and plasma samples were harvested. Tissue samples were washed with 0.9% sodium chloride solution to remove the residual blood or contents, blotted on a filter paper, and stored at −70°C prior to the analysis.
Protein precipitation was selected for the pretreatment of both the plasma and the tissue homogenate prepared after thawing at room temperature, cut into pieces, and homogenized with a quintuple methanol–water mixture (1:1, v/v) for each tissue sample.
Briefly as follows, an aliquot of 25-μL plasma or tissue homogenate was spiked with 100 μL of internal standard solution (1 μg/mL for plasma, 0.2 μg/mL for tissue homogenate) and 300 μL of methanol added and vortex mixed for 60 s. The mixture was then centrifuged at 14,000 rpm at 4°C for 5.0 min, and the supernatant was diluted with methanol–water (4:1, v/v) in a ratio of 1:9 for the plasma or 1:1 for the tissue homogenate, and 5 μL of the resulting solution was injected for the LC-MS/MS analysis.
After oral administration of 40 mg/kg SHR9146, samples in different tissues at predetermined time points (pre-drug administration, post-drug administration at 1, 3, 6, and 24 h) were collected and prepared for the analysis. The drug concentrations of SHR9146 (μg/g or μg/mL) were determined for each mouse, and the mean and standard deviation were further obtained (Table S7).

[1] = kidney, Mean (n=3), read-out: SHR9146 concentration in Kidney
[2] = liver, Mean (n=3), read-out: SHR9146 concentration in Liver
[3] = lung, Mean (n=3), read-out: SHR9146 concentration in Lung
[4] = ovary, Mean (n=3), read-out: SHR9146 concentration in Ovary
[5] = pancreas, Mean (n=3), read-out: SHR9146 concentration in Pancreas
[6] = plasma, Mean (n=3), read-out: SHR9146 concentration in Plasma
[7] = skeletal muscle, Mean (n=3), read-out: SHR9146 concentration in Skeletal muscle
[8] = skin, Mean (n=3), read-out: SHR9146 concentration in Skin
[9] = small intestine, Mean (n=3), read-out: SHR9146 concentration in Small intestine
[10] = spleen, Mean (n=3), read-out: SHR9146 concentration in Spleen
[11] = stomach, Mean (n=3), read-out: SHR9146 concentration in Stomach
[12] = stomach, individual mice, read-out: SHR9146 concentration in Stomach
[13] = thyroid gland, Mean (n=3), read-out: SHR9146 concentration in thyroid gland
[14] = uterus, Mean (n=3), read-out: SHR9146 concentration in Uterus
[15] = whole blood, Mean (n=3), read-out: SHR9146 concentration in Whole blood

Question: For `OCCn1cc(-c2ccc(N3CCC([C@H]4c5c(F)cccc5-c5cncn54)CC3)cc2)cn1` [SHR9146], which concentration at 1 h (kidney, 1 h, individual mice, read-out: SHR9146 concentration in Kidney) is on record?
Answer: 13100 ng/g

Question: What about the concentration at 3 h [1] of the same compound?
Answer: 12700 ng/g

Question: What about the concentration at 6 h [1] of the same compound?
Answer: 1430 ng/g

Question: What about the concentration at 1 h (liver, 1 h, Mean (n=3), read-out: SHR9146 concentration in Liver) of the same compound?
Answer: 24300 ng/g

Question: And the concentration at 1 h (liver, 1 h, individual mice, read-out: SHR9146 concentration in Liver)?
Answer: 22800 ng/g

Question: What about the concentration at 3 h [2] of the same compound?
Answer: 19800 ng/g

Question: And the concentration at 6 h [2]?
Answer: 1950 ng/g

Question: What about the concentration at 24 h [2] of the same compound?
Answer: 37 ng/g

Question: What about the concentration at 24 h (liver, individual mice, read-out: SHR9146 concentration in Liver) of the same compound?
Answer: 54 ng/g

Question: And the concentration at 1 h (lung, 1 h, Mean (n=3), read-out: SHR9146 concentration in Lung)?
Answer: 16300 ng/g

Question: What about the concentration at 1 h (lung, 1 h, individual mice, read-out: SHR9146 concentration in Lung) of the same compound?
Answer: 13600 ng/g

Question: And the concentration at 3 h [3]?
Answer: 25800 ng/g

Question: And the concentration at 6 h [3]?
Answer: 1380 ng/g

Question: And the concentration at 24 h [3]?
Answer: 165 ng/g

Question: What about the concentration at 24 h (lung, individual mice, read-out: SHR9146 concentration in Lung) of the same compound?
Answer: 154 ng/g

Question: What about the concentration at 1 h (ovary, 1 h, Mean (n=3), read-out: SHR9146 concentration in Ovary) of the same compound?
Answer: 18300 ng/g

Question: And the concentration at 1 h (ovary, 1 h, individual mice, read-out: SHR9146 concentration in Ovary)?
Answer: 17000 ng/g

Question: What about the concentration at 3 h [4] of the same compound?
Answer: 12700 ng/g

Question: What about the concentration at 6 h [4] of the same compound?
Answer: 704 ng/g

Question: And the concentration at 1 h (pancreas, 1 h, Mean (n=3), read-out: SHR9146 concentration in Pancreas)?
Answer: 18000 ng/g

Question: And the concentration at 1 h (pancreas, 1 h, individual mice, read-out: SHR9146 concentration in Pancreas)?
Answer: 15900 ng/g

Question: And the concentration at 3 h [5]?
Answer: 12500 ng/g

Question: And the concentration at 6 h [5]?
Answer: 638 ng/g

Question: What about the concentration at 1 h (plasma, 1 h, Mean (n=3), read-out: SHR9146 concentration in Plasma) of the same compound?
Answer: 13100 ng/mL

Question: And the concentration at 1 h (plasma, 1 h, individual mice, read-out: SHR9146 concentration in Plasma)?
Answer: 11800 ng/mL

Question: And the concentration at 3 h [6]?
Answer: 9070 ng/mL

Question: And the concentration at 6 h [6]?
Answer: 471 ng/mL

Question: And the concentration at 1 h (skeletal muscle, 1 h, Mean (n=3), read-out: SHR9146 concentration in Skeletal muscle)?
Answer: 7800 ng/g

Question: And the concentration at 1 h (skeletal muscle, 1 h, individual mice, read-out: SHR9146 concentration in Skeletal muscle)?
Answer: 6440 ng/g

Question: What about the concentration at 3 h [7] of the same compound?
Answer: 5910 ng/g

Question: What about the concentration at 6 h [7] of the same compound?
Answer: 294 ng/g

Question: What about the concentration at 1 h (skin, 1 h, Mean (n=3), read-out: SHR9146 concentration in Skin) of the same compound?
Answer: 11100 ng/g

Question: And the concentration at 1 h (skin, 1 h, individual mice, read-out: SHR9146 concentration in Skin)?
Answer: 9600 ng/g

Question: What about the concentration at 3 h [8] of the same compound?
Answer: 7700 ng/g

Question: And the concentration at 6 h [8]?
Answer: 498 ng/g

Question: What about the concentration at 1 h (small intestine, 1 h, Mean (n=3), read-out: SHR9146 concentration in Small intestine) of the same compound?
Answer: 21600 ng/g

Question: What about the concentration at 1 h (small intestine, 1 h, individual mice, read-out: SHR9146 concentration in Small intestine) of the same compound?
Answer: 19000 ng/g

Question: And the concentration at 3 h [9]?
Answer: 16400 ng/g

Question: And the concentration at 3 h (small intestine, individual mice, read-out: SHR9146 concentration in Small intestine)?
Answer: 14600 ng/g

Question: And the concentration at 6 h [9]?
Answer: 832 ng/g

Question: What about the concentration at 1 h (spleen, 1 h, Mean (n=3), read-out: SHR9146 concentration in Spleen) of the same compound?
Answer: 6700 ng/g

Question: And the concentration at 1 h (spleen, 1 h, individual mice, read-out: SHR9146 concentration in Spleen)?
Answer: 6190 ng/g

Question: What about the concentration at 3 h [10] of the same compound?
Answer: 4740 ng/g

Question: And the concentration at 6 h [10]?
Answer: 241 ng/g

Question: And the concentration at 1 h (stomach, 1 h, Mean (n=3), read-out: SHR9146 concentration in Stomach)?
Answer: 27800 ng/g

Question: And the concentration at 1 h (stomach, 1 h, individual mice, read-out: SHR9146 concentration in Stomach)?
Answer: 27400 ng/g

Question: And the concentration at 3 h [11]?
Answer: 27200 ng/g

Question: What about the concentration at 3 h [12] of the same compound?
Answer: 29000 ng/g

Question: And the concentration at 6 h [11]?
Answer: 3870 ng/g

Question: And the concentration at 24 h [11]?
Answer: 848 ng/g

Question: What about the concentration at 24 h [12] of the same compound?
Answer: 782 ng/g

Question: What about the concentration at 1 h (thyroid gland, 1 h, Mean (n=3), read-out: SHR9146 concentration in thyroid gland) of the same compound?
Answer: 9550 ng/g

Question: What about the concentration at 1 h (thyroid gland, 1 h, individual mice, read-out: SHR9146 concentration in thyroid gland) of the same compound?
Answer: 8340 ng/g

Question: What about the concentration at 3 h [13] of the same compound?
Answer: 6940 ng/g

Question: And the concentration at 6 h [13]?
Answer: 378 ng/g

Question: And the concentration at 1 h (uterus, 1 h, Mean (n=3), read-out: SHR9146 concentration in Uterus)?
Answer: 10700 ng/g

Question: And the concentration at 1 h (uterus, 1 h, individual mice, read-out: SHR9146 concentration in Uterus)?
Answer: 9740 ng/g

Question: What about the concentration at 3 h [14] of the same compound?
Answer: 6040 ng/g

Question: And the concentration at 6 h [14]?
Answer: 363 ng/g

Question: And the concentration at 1 h (whole blood, 1 h, Mean (n=3), read-out: SHR9146 concentration in Whole blood)?
Answer: 8660 ng/mL

Question: And the concentration at 1 h (whole blood, 1 h, individual mice, read-out: SHR9146 concentration in Whole blood)?
Answer: 7360 ng/mL

Question: And the concentration at 3 h [15]?
Answer: 6190 ng/mL

Question: What about the concentration at 6 h [15] of the same compound?
Answer: 298 ng/mL

Question: And the “SHR9146 concentration in Bladder” value (male, 1 h, individual mice)?
Answer: 13.766 µg/g and 11.095 µg/g

Question: What about the “SHR9146 concentration in Kidney” value (male, 1 h, individual mice) of the same compound?
Answer: 15.501 µg/g and 7.908 µg/g

Question: And the “SHR9146 concentration in Liver” value (male, 1 h, individual mice)?
Answer: 23.893 µg/g and 14.099 µg/g

Question: And the “SHR9146 concentration in Lung” value (male, 1 h, individual mice)?
Answer: 16.090 µg/g and 8.210 µg/g
